This passage reports IC50, Drug metabolism and metabolised results from ChEMBL document CHEMBL1955821, “Biotransformations of 6',7'-dihydroxybergamottin and 6',7'-epoxybergamottin by the citrus-pathogenic fungi diminish cytochrome P450 3A4 inhibitory activity” (Bioorg Med Chem Lett, 2012).

Series [1] concerns the target Cytochrome P450 3A4 (Homo sapiens, UniProt P08684). As to the kind of experiment: Inhibition of CYP3A4 after 30 mins by fluorescence assay. It is filed as ADME.
The nature of series [2]: Drug metabolism in Penicillium ulaiense assessed as 6,7-furano-5-(6',7'-dihydroxygeranyloxy)-2-hydroxy-hydrocoumaric acid level at 78.2 uM after 5 days. It is filed as ADME. The following applies: 120 h.
The nature of series [3]: Drug metabolism in Phomopsis citri assessed as bergaptol level at 78.2 uM after 5 days. Format: ADME. The following applies: diaporthe citri, 120 h.
Series [4] has as its system Lasiodiplodia theobromae. Nature of the series: Drug metabolism in Lasiodiplodia theobromae assessed as bergaptol level at 78.2 uM after 5 days. It is filed as ADME, organism-based. The following applies: in vivo, 120 h.
Series [5] concerns Geotrichum. Nature of the series: Drug metabolism in Geotrichum citri assessed as bergaptol level at 78.2 uM after 5 days. It is filed as ADME, organism-based. The following applies: in vivo, 120 h.
Series [6] in a line: Drug metabolism in Penicillium ulaiense assessed as bergaptol level at 78.2 uM after 5 days. It is filed as ADME. The following applies: 120 h.
A short description of series [7]: Drug metabolism in Phomopsis citri assessed as 6',7'-dihydroxybergamottin level at 78.2 uM after 5 days. The following applies: diaporthe citri, 120 h. Format: ADME.
Series [8] deals with Lasiodiplodia theobromae. Nature of the series: Drug metabolism in Lasiodiplodia theobromae assessed as 6',7'-dihydroxybergamottin level at 78.2 uM after 5 days. It is filed as ADME, organism-based. The following applies: in vivo, 120 h.
The subject of series [9] is Botrytis cinerea. Nature of the series: Drug metabolism in Botrytis cinerea assessed as 6',7'-dihydroxybergamottin level at 78.2 uM after 5 days. The following applies: in vivo, 120 h. It is filed as ADME, organism-based.
In series [10] the test system is Geotrichum. As to the kind of experiment: Drug metabolism in Geotrichum citri assessed as 6',7'-dihydroxybergamottin level at 78.2 uM after 5 days. The following applies: in vivo, 120 h. Format: ADME, organism-based.
Series [11] has as its system Penicillium digitatum. As to the kind of experiment: Drug metabolism in Penicillium digitatum assessed as 6',7'-dihydroxybergamottin level at 78.2 uM after 5 days. Format: ADME, organism-based. The following applies: in vivo, 120 h.
A short description of series [12]: Drug metabolism in Penicillium ulaiense assessed as 6',7'-dihydroxybergamottin level at 78.2 uM after 5 days. It is filed as ADME. The following applies: 120 h.
The nature of series [13]: Drug metabolism in Phomopsis citri assessed as compound level at 78.2 uM after 5 days. The following applies: diaporthe citri, 120 h. Format: ADME.
The test system of series [14] is Lasiodiplodia theobromae. As to the kind of experiment: Drug metabolism in Lasiodiplodia theobromae assessed as compound level at 78.2 uM after 5 days. It is filed as ADME, organism-based. The following applies: in vivo, 120 h.
For series [15], the system named is Geotrichum. Nature of the series: Drug metabolism in Geotrichum citri assessed as compound level at 78.2 uM after 5 days. The following applies: in vivo, 120 h. It is filed as ADME, organism-based.
Series [16] concerns Botrytis cinerea. As to the kind of experiment: Drug metabolism in Botrytis cinerea assessed as compound level at 78.2 uM after 5 days. The following applies: in vivo, 120 h. Format: ADME, organism-based.
A short description of series [17]: Drug metabolism in Penicillium ulaiense assessed as compound level at 78.2 uM after 5 days. Format: ADME. The following applies: 120 h.
The test system of series [18] is Penicillium digitatum. As to the kind of experiment: Drug metabolism in Penicillium digitatum assessed as compound level at 78.2 uM after 5 days. Format: ADME, organism-based. The following applies: in vivo, 120 h.
Series [19] relates to Penicillium digitatum. As to the kind of experiment: Drug metabolism in Penicillium digitatum assessed as 6,7-furano-5-(6',7'-dihydroxygeranyloxy)-2-hydroxy-hydrocoumaric acid level at 78.2 uM after 5 days. Format: ADME, organism-based. The following applies: in vivo, 120 h.
The test system of series [20] is Geotrichum. As to the kind of experiment: Drug metabolism in Geotrichum citri assessed as 6,7-furano-5-(6',7'-dihydroxygeranyloxy)-2-hydroxy-hydrocoumaric acid level at 78.2 uM after 5 days. The following applies: in vivo, 120 h. Format: ADME, organism-based.
Series [21] concerns Botrytis cinerea. Nature of the series: Drug metabolism in Botrytis cinerea assessed as 6,7-furano-5-(6',7'-dihydroxygeranyloxy)-2-hydroxy-hydrocoumaric acid level at 78.2 uM after 5 days. Format: ADME, organism-based. The following applies: in vivo, 120 h.
Series [22] concerns Lasiodiplodia theobromae. Nature of the series: Drug metabolism in Lasiodiplodia theobromae assessed as 6,7-furano-5-(6',7'-dihydroxygeranyloxy)-2-hydroxy-hydrocoumaric acid level at 78.2 uM after 5 days. Format: ADME, organism-based. The following applies: in vivo, 120 h.
Series [23] is described as follows: Drug metabolism in Phomopsis citri assessed as 6,7-furano-5-(6',7'-dihydroxygeranyloxy)-2-hydroxy-hydrocoumaric acid level at 78.2 uM after 5 days. Format: ADME. The following applies: diaporthe citri, 120 h.
Series [24] can be described thus: Drug metabolism in submerged cultures of Penicillium ulaiense assessed as decrease in compound concentration at 23.7 uM after 2 days. The following applies: read-out: Drug metabolism. It is filed as ADME.
The nature of series [25]: Drug metabolism in submerged cultures of Penicillium ulaiense assessed as decrease in compound concentration at 23.7 uM after 8 days. Format: ADME. The following applies: 192 h.
Series [26] deals with Geotrichum. As to the kind of experiment: Drug metabolism in Geotrichum citri assessed as production of 6,7-furano-5-(6',7'-dihydroxygeranyloxy)-2-hydroxy-hydrocoumaric acid at 23.7 uM after 2 days. It is filed as ADME, organism-based. The following applies: in vivo, 48 h.
Series [27] in a line: Drug metabolism in Penicillium ulaiense assessed as production of 6,7-furano-5-(6',7'-dihydroxygeranyloxy)-2-hydroxy-hydrocoumaric acid at 23.7 uM upto 10 days. It is filed as ADME. The following applies: 240 h.
Series [28] can be described thus: Drug metabolism in Penicillium ulaiense assessed as production of bergaptol at 23.7 uM up to 10 days. The following applies: 240 h. Format: ADME.
A short description of series [29]: Drug metabolism in Penicillium ulaiense assessed as decrease in 6',7'-dihydroxybergamottin level at 23.7 uM after 4 days. Format: ADME. The following applies: 96 h.
The nature of series [30]: Drug metabolism in Penicillium ulaiense assessed as production of 6,7-furano-5-(6',7'-dihydroxygeranyloxy)-2-hydroxy-hydrocoumaric acid at 23.7 uM after 2 days. It is filed as ADME. The following applies: 48 h.

Bounds are passed on as bounds.

Chain of Cytochrome P450 3A4 (P08684 whole entry): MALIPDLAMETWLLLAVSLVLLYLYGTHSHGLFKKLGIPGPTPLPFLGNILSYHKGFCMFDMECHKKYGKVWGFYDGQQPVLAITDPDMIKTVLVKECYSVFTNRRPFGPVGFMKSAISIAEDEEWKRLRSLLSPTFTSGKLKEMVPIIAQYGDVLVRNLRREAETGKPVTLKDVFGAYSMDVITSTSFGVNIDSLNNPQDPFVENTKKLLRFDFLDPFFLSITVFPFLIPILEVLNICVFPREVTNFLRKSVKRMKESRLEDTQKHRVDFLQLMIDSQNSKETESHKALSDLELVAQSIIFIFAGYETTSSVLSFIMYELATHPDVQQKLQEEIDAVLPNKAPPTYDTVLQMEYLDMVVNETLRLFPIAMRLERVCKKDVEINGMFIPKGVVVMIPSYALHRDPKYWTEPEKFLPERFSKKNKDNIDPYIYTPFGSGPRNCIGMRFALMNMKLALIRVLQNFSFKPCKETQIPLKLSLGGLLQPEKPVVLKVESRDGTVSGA

What is called IC50 is the concentration that inhibits the measured activity by half. A high value points to weaker potency in that assay. Compound `C/C(=C\COc1c(CCC(=O)O)c(O)cc2occc12)CCC(O)C(C)(C)O` (stereo unspecified) registered an IC50 in series [1] greater than 172 µM.

As to `C/C(=C\COc1c2ccoc2cc2oc(=O)ccc12)CC[C@@H](O)C(C)(C)O`, in series [1], the concentration for half-maximal inhibition (IC50) came out at 0.81 µM.

Consider `C/C(=C\COc1c2ccoc2cc2oc(=O)ccc12)CCC1OC1(C)C` (stereo unspecified) [6',7'-EPOXYBERGAMOTTIN], for which the Drug metabolism came to 46.6 µM in series [2]; 0.7 µM in series [3]; 10.3 µM in series [4]; 3.9 µM in series [5]; 0.3 µM in series [6]; 3.3 µM in [7]. The Drug metabolism was 23.9 µM in series [8]; 5 µM in series [9]; 7.3 µM in [10]; 8.3 µM in [11]; 0.5 µM in series [12]; 1.3 µM in series [13]. Further, the Drug metabolism is 1.1 µM in [14]; 8.2 µM in [15]; 1.3 µM in series [16]; 0.7 µM in series [17]; 0.1 µM in series [18]; 32 µM in [19]. The Drug metabolism in series [20] was 24.3 µM; in series [21], 25.1 µM; in [22], 12.6 µM; in series [23], 4.1 µM; in series [25], “Active”; in [26], 7.4 µM. Moreover, the Drug metabolism entry was “Active” in [27], “Active” in [28], “Active” in [29] and less than 0.5 µM in [30]. In addition, the metabolised at 48 h, 23.7 µM in [24] was greater than 90%.
